# Key:
# [1] = test system: paclitaxel-resistant cancer cell lines Skmel28, A375, and B16F10; assay: WST cell viability in paclitaxel-resistant cancer cell lines (Example 3); type: cell-based; settings: even at high concentrations of 100 nM or more, FIG. 1B
# Protocol: The cell lines used in this example are as follows: normal cell line HS27, and paclitaxel-resistant cancer cell lines Skmel28, A375, and B16F10. Each cell line was cultured in DMEM medium containing 10% fetal bovine serum and seeded at a density of 3,000 cells/well in a 96-well plate, followed by incubation at 37° C. and 5% CO2 for 24 hours. […] The number of surviving cells was measured using a WST kit (DoGen, Seoul, South Korea, Cat No: EZ-3000) according to the manufacturer's instructions.
# normal cell line HS27 = assay: WST cell viability in normal cell line (Example 3); type: cell-based, human; settings: HS27, 3 days, FIG. 1A
# Protocol: The cell lines used in this example are as follows: normal cell line HS27, and paclitaxel-resistant cancer cell lines Skmel28, A375, and B16F10. Each cell line was cultured in DMEM medium containing 10% fetal bovine serum and seeded at a density of 3,000 cells/well in a 96-well plate, followed by incubation at 37° C. and 5% CO2 for 24 hours. RP116 was serially diluted at concentrations ranging from 0.008 to 1,000 MOI (Multiplicity of Infection) and treated to the prepared cells, and further incubated for three days at 37° C. and 5% CO2. The number of surviving cells was measured using a WST kit (DoGen, Seoul, South Korea, Cat No: EZ-3000) according to the manufacturer's instructions.
compound,measurement,setting,value
CC(=O)O[C@H]1C(=O)[C@@]2(C)[C@H]([C@H](OC(=O)c3ccccc3)[C@]3(O)C[C@H](OC(=O)[C@H](O)[C@@H](NC(=O)c4ccccc4)c4ccccc4)C(C)=C1C3(C)C)[C@]1(OC(C)=O)CO[C@@H]1C[C@@H]2O [paclitaxel],cell viability of paclitaxel-resistant cancer cells vs control group,[1],no significant difference in cell viability compared to the control group
same,cell viability of normal cell line vs control group,normal cell line HS27,cell viability decreased in a concentration-dependent manner

# Source: US20240041959A1, “NOVEL MODIFIED REOVIRUS AND USE THEREOF” (priority 2020, published 2024)
